Assay results as given in patent US8927717B1, “Thiochromeno[2,3-c]quinolin-12-one derivatives, preparation method and application thereof” (National Defense Medical Center, priority 2014, dated 2015).

Key:
60 cancer cell lines = test: NCI 60-cell screen, SRB, whole panel (mean, delta, range); format: cell-based; conditions: 10^−5 molar, 48 hours, SRB; for Growth percent, Delta: delta over the cell panel; for Growth percent, Range: range over the cell panel
HOP-62 = format: cell-based; conditions: Non-small cell lung cancer; 10^−5 molar; 48 hours; SRB

melting point | Compound | Growth percent, Delta (60 cancer cell lines) [%] | Growth percent, Range (60 cancer cell lines) [%] | Growth percent HOP-62 (HOP-62) [%]
251 to 252 °C | COc1ccc(CNc2nc3ccccc3c3c(=O)c4cc(Cl)ccc4sc23)cc1OC [Compound N29, 10-Chloro-6-((3,4-dimethoxybenzyl)amino)-12H-thiochromeno[2,3-c]quinolin-12-one] | – | – | –
165 to 166 °C | O=c1c2cc(Cl)ccc2sc2c(NCC3CCCCC3)nc3ccccc3c12 [Compound N24, 10-Chloro-6-((cyclohexylmethyl)amino)-12H-thiochromeno[2,3-c]quinolin-12-one] | – | – | –
178 to 179 °C | CCCNc1nc2ccccc2c2c(=O)c3cc(Cl)ccc3sc12 [Compound N3, 10-Chloro-6-propylamino-12H-thiochromeno[2,3-c]quinolin-12-one] | – | – | –
184 to 185 °C | O=c1c2cc(Cl)ccc2sc2c(N3CCC(Cc4ccccc4)CC3)nc3ccccc3c12 [Compound 17, 6-(4-Benzylpiperidin-1-yl)-10-chloro-12H-thiochromeno[2,3-c]quinolin-12-one] | – | – | –
251 to 252 °C | O=c1c2cc(Cl)ccc2sc2c(NC3Cc4ccccc4C3)nc3ccccc3c12 [Compound N20, 10-Chloro-6-((2,3-dihydro-1H-inden-2-yl)amino)-12H-thiochromeno[2,3-c]quinolin-12-one] | – | – | –
187 to 188 °C | O=c1c2cc(Cl)ccc2sc2c(N3CCCCC3)nc3ccccc3c12 [Compound 15, 10-Chloro-6-(piperidin-1-yl)-12H-thiochromeno[2,3-c]quinolin-12-one] | – | – | –
159 to 160 °C | CC(C)CNc1nc2ccccc2c2c(=O)c3cc(Cl)ccc3sc12 [Compound N5, 10-Chloro-6-isobutylamino-12H-thiochromeno[2,3-c]quinolin-12-one] | – | – | –
219 to 220 °C | O=c1c2cc(Cl)ccc2sc2c(N3CCSCC3)nc3ccccc3c12 [Compound 14, 10-Chloro-6-thiomorpholino-12H-thiochromeno[2,3-c]quinolin-12-one] | – | – | –
187 to 189 °C | O=c1c2cc(Cl)ccc2sc2c(N3CCC(N4CCCCC4)CC3)nc3ccccc3c12 [Compound 18, 6-([1,4′-Bipiperidin]-1′-yl)-10-chloro-12H-thiochromeno[2,3-c]quinolin-12-one] | – | – | –
170 to 171 °C | O=c1c2cc(Cl)ccc2sc2c(N3CCCC3)nc3ccccc3c12 [Compound 20, 10-Chloro-6-(pyrrolidin-1-yl)-12H-thiochromeno[2,3-c]quinolin-12-one] | – | – | –
178 to 180 °C | O=c1c2cc(Cl)ccc2sc2c(NCc3cccs3)nc3ccccc3c12 [Compound N23, 10-Chloro-6-((thiophen-2-ylmethyl)amino)-12H-thiochromeno[2,3-c]quinolin-12-one] | – | – | –
370 °C (dec.) | NC(N)=Nc1nc2ccccc2c2c(=O)c3cc(Cl)ccc3sc12 [Compound N33, 2-(10-Chloro-12-oxo-12H-thiochromeno[2,3-c]quinolin-6-yl)guanidine] | – | – | –
147 to 149 °C | CCCCNc1nc2ccccc2c2c(=O)c3cc(Cl)ccc3sc12 [Compound N4, 6-(Butylamino)-10-chloro-12H-thiochromeno[2,3-c]quinolin-12-one] | – | – | –
258 to 261 °C | O=C1CCCCN1c1nc2ccccc2c2c(=O)c3cc(Cl)ccc3sc12 [Compound 21, 10-chloro-6-(2-oxopiperidin-1-yl)-12H-thiochromeno[2,3-c]quinolin-12-one] | – | – | –
194 to 196 °C | O=c1c2cc(Cl)ccc2sc2c(NC3CCN(Cc4ccccc4)CC3)nc3ccccc3c12 [Compound N22, 6-((1-Benzylpiperidin-4-yl)amino)-10-chloro-12H-thiochromeno[2,3-c]quinolin-12-one] | – | – | –
196 to 198 °C | CCN1CCN(c2nc3ccccc3c3c(=O)c4cc(Cl)ccc4sc23)CC1 [Compound 9, 10-Chloro-6-(4-ethylpiperazin-1-yl)-12H-thiochromeno[2,3-c]quinolin-12-one] | – | – | –
180 to 181 °C | O=c1c2cc(Cl)ccc2sc2c(NN3CCCCC3)nc3ccccc3c12 [Compound N34, 10-Chloro-6-(piperidin-1-ylamino)-12H-thiochromeno[2,3-c]quinolin-12-one] | – | – | –
164 to 165 °C | O=c1c2cc(Cl)ccc2sc2c(N3CCC(CCCC4CCNCC4)CC3)nc3ccccc3c12 [Compound 19, 10-Chloro-6-(4-(3-(piperidin-4-yl)propyl)piperidin-1-yl)-12H-thiochromeno[2,3-c]quinolin-12-one] | – | – | –
224 to 225 °C | O=c1c2cc(Cl)ccc2sc2c(N3CCC(O)CC3)nc3ccccc3c12 [Compound 16, 10-Chloro-6-(4-hydroxypiperidin-1-yl)-12H-thiochromeno[2,3-c]quinolin-12-one] | – | – | –
187 to 189 °C | O=c1c2cc(Cl)ccc2sc2c(NCc3ccccn3)nc3ccccc3c12 [Compound N26, 10-Chloro-6-((pyridin-2-ylmethyl)amino)-12H-thiochromeno[2,3-c]quinolin-12-one] | – | – | –
223 to 224 °C | COc1ccccc1CNc1nc2ccccc2c2c(=O)c3cc(Cl)ccc3sc12 [Compound N28, 10-Chloro-6-((2-methoxybenzyl)amino)-12H-thiochromeno[2,3-c]quinolin-12-one] | – | – | –

Compound | melting point | Growth percent, Delta (60 cancer cell lines) [%] | Growth percent, Range (60 cancer cell lines) [%] | Growth percent HOP-62 (HOP-62) [%]
O=c1c2cc(Cl)ccc2sc2c(O)nc3ccccc3c12 [Compound 4, 10-Chloro-6-hydroxy-12H-thiochromeno[2,3-c]quinolin-12-one] | > 410 °C | 30.54 | 50.31 | –
CN(C)c1nc2ccccc2c2c(=O)c3cc(Cl)ccc3sc12 [Compound 6, 10-Chloro-6-dimethylamino-12H-thiochromeno[2,3-c]quinolin-12-one] | 194 to 195 °C | 65.30 | 93.93 | –
O=C(O)c1c(Sc2ccc(Cl)cc2)c(O)nc2ccccc12 [Compound 2, 3-((4-Chlorophenyl)thio)-2-hydroxyquinoline-4-carboxylic acid] | 306 to 308 °C | 33.20 | 55.29 | –
O=c1c2cc(Cl)ccc2sc2c(N3CCN(c4ccccc4)CC3)nc3ccccc3c12 [Compound 12, 10-Chloro-6-(4-phenylpiperazin-1-yl)-12H-thiochromeno[2,3-c]quinolin-12-one] | 236 to 237 °C | 35.45 | 60.10 | –
CN1CCN(c2nc3ccccc3c3c(=O)c4cc(Cl)ccc4sc23)CC1 [Compound 8, 10-Chloro-6-(4-methylpiperazin-1-yl)-12H-thiochromeno[2,3-c]quinolin-12-one] | 212 to 214 °C | 68.64 | 92.74 | –
O=c1c2cc(Cl)ccc2sc2c(N3CCOCC3)nc3ccccc3c12 [Compound 13, 10-Chloro-6-morpholino-12H-thiochromeno[2,3-c]quinolin-12-one] | 217 to 218 °C | 50.85 | 79.17 | –
COc1nc2ccccc2c2c(=O)c3cc(Cl)ccc3sc12 [Compound 5, 10-Chloro-6-methoxy-12H-thiochromeno[2,3-c]quinolin-12-one] | 227 to 228 °C | 39.82 | 61.02 | 96.64
O=c1c2cc(Cl)ccc2sc2c(N3CCN(CCO)CC3)nc3ccccc3c12 [Compound 10, 10-Chloro-6-(4-(2-hydroxyethyl)piperazin-1-yl)-12H-thiochromeno[2,3-c]quinolin-12one] | 211 to 213 °C | 48.59 | 83.73 | –
